# Results taken from patent publication US20130217595A1, “METHOD FOR THE IDENTIFICATION OF CATECHOL O-METHYLTRANSFERASE MODULATORS” (Hoffman-La Roche Inc., priority 2010, published 2013).
# Target: human COMT (Homo sapiens, UniProt P21964)
# Details: SAM limited (500 nM); Alexa Fluor 488-Nitrocatechol substrate; FIG. 5
# Method: The term “kinetic readout” refers to the difference of the fluorescent signal measured at two certain time points in the linear part of an enzymatic reaction. One measurement is done at the beginning of the enzymatic reaction (start-point) and after an incubation time a second readout is performed (end-point). The final signal is then calculated in rfu/min as (rfu(end-point)—rfu(start-point))/incubation time. (rfu: relative fluorescence units)
# 384-well microtiter plate, Corning black with flat clear bottom, non binding surface, polystyrene (ref. 3655)
# Reagent and Buffer Stock Solutions: • Buffer stock solutions: • M Phosphate buffer pH 7.6 (Na2HPO4 Fluka 71644, NaH2PO4 Merck 6346.0500) stored at 4° C. • 580 mM MgCl2 (Merck 1.0833.0250), stored at RT • 1 M CaCl2 stored at 4° C. • 65 mM DTT (Sigma D-0632), stored at −20° C. • Recombinant human COMT: prepared in house, stored at −80° C. • 4-Nitrocatechol-Alexa Fluor 488: prepared in house, 1.3 mM in DMSO, stored at RT in the dark • S-Adenosyl-methionine: 10 mM in H2O (Sigma-Aldirch A2804), stored at −20° C. […]
# Readout: kinetic measurement on plate: vision TM reader (exc. 475(40) nm, em. 535(45) nm, intensity 7.5%, exposure time 1 s.
# Chain of human COMT (P21964 whole entry): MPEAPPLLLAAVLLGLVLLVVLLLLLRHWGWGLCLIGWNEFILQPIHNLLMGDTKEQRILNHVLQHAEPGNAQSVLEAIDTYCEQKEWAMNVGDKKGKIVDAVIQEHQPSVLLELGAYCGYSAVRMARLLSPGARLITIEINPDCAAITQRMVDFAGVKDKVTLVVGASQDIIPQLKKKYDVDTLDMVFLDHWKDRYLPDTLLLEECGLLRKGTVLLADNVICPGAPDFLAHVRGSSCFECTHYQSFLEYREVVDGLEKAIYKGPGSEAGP
smiles,measurement,value
NCCc1ccc(O)c(O)c1 [dopamine],kinetic fluorescence readout plateau as a function of compound concentration,Decreasing plateaus were reached with increasing dopamine concentrations
